Consider three compounds from ChEMBL document CHEMBL1121645, “Pyrimidine acyclic nucleosides, 1-[(2-Hydroxyethoxy)methyl]pyrimidines as candidate antivirals” (J Med Chem, 1981).

In experiment [1] the test system is Thymidine kinase (Human alphaherpesvirus 1). The experiment is described as follows: Compound was evaluated for the inhibitory activity against HSV-1 encoded thymidine kinase at 300 uM.
The test system is the same in experiment [2]. The experiment is described as follows: Compound was evaluated for the inhibitory activity against HSV-1 encoded thymidine kinase at 300 uM; 45-56% inhibition.

Molecules are shown by their SMILES.

By inhibition is commonly meant how much of the control response was suppressed. Low values mean a weak effect, high ones a strong effect. In experiment [1], `O=c1[nH]c(=O)n(COCCO)cc1C(F)(F)F` displayed an inhibition of 56%.

Compound `O=c1[nH]c(=O)n(COCCO)cc1I` came in with an inhibition in experiment [1] of 56%.

In experiment [2], `O=C(OCCOCn1ccc(=O)[nH]c1=O)c1ccccc1` displayed an inhibition of 45%.
